Active and inactive are the calls of the source. No rule for the calls is given here.
Legend:
Assay in all cases: CYP450 and receptor off-target profile – biochemical, Ricerca HitProfilingScreen, selectivity assay for GPR7 antagonist project, late-stage follow-up (AID 504401)
[1] = molecular target: 5-hydroxytryptamine receptor 2B (Homo sapiens) (UniProt P41595); details: Ricerca radioligand binding and CYP450 panel; Serotonin (5-Hydroxytryptamine) 5-HT2B; at 10 µM; stronger effect = higher value
Chain of 5-hydroxytryptamine receptor 2B (Homo sapiens) (P41595 whole entry, looked up): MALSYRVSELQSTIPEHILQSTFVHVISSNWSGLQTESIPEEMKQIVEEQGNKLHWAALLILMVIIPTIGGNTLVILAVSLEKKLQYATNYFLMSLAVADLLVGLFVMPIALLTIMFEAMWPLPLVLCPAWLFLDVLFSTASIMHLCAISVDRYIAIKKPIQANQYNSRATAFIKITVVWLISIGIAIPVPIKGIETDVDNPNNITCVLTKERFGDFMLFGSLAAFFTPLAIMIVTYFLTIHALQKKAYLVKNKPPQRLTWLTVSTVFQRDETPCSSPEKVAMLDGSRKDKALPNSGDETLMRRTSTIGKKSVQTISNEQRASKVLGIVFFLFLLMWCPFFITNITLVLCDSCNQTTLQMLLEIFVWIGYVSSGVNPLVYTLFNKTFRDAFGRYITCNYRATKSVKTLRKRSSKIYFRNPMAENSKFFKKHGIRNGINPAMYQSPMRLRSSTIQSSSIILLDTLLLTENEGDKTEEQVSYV

Adenosine A1 = details: Ricerca radioligand binding and CYP450 panel, at 10 µM, stronger effect = higher value
Adenosine A2A = details: Ricerca radioligand binding and CYP450 panel, at 10 µM, stronger effect = higher value
Adrenergic alpha1A = details: Ricerca radioligand binding and CYP450 panel, at 10 µM, stronger effect = higher value
Adrenergic alpha1B = details: Ricerca radioligand binding and CYP450 panel, at 10 µM, stronger effect = higher value
Adrenergic beta1 = details: Ricerca radioligand binding and CYP450 panel, at 10 µM, stronger effect = higher value
[2] = molecular target: Alpha-2A adrenergic receptor (Homo sapiens) (UniProt P08913); details: Ricerca radioligand binding and CYP450 panel; Adrenergic alpha2A; at 10 µM; stronger effect = higher value
Chain of Alpha-2A adrenergic receptor (Homo sapiens) (P08913 whole entry, looked up): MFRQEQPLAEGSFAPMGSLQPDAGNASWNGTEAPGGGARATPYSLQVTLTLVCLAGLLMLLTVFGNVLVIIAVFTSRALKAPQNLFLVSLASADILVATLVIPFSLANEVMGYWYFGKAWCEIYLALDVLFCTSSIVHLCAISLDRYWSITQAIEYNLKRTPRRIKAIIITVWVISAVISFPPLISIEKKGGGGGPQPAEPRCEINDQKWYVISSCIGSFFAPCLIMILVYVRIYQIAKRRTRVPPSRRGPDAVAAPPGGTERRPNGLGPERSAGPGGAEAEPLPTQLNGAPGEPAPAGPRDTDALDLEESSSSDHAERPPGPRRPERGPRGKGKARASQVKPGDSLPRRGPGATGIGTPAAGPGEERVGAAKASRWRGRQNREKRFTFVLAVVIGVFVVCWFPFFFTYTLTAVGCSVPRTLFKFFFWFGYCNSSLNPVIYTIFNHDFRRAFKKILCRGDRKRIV

[3] = tested on: Alpha-2A adrenergic receptor (Homo sapiens) + Histamine H1 receptor (Homo sapiens) + Mu-type opioid receptor (Homo sapiens); details: Ricerca radioligand binding and CYP450 panel; at 10 µM; stronger effect = higher value
[4] = molecular target: Beta-2 adrenergic receptor (Homo sapiens) (UniProt P07550); details: Ricerca radioligand binding and CYP450 panel; Adrenergic beta2; at 10 µM; stronger effect = higher value
CYP450 2C19 = details: Ricerca radioligand binding and CYP450 panel, at 10 µM, stronger effect = higher value
Calcium Channel L-Type = details: Ricerca radioligand binding and CYP450 panel, Dihydropyridine site, at 10 µM, stronger effect = higher value
Cannabinoid CB1 = details: Ricerca radioligand binding and CYP450 panel, at 10 µM, stronger effect = higher value
[5] = molecular target: Cytochrome P450 1A2 (Homo sapiens) (UniProt P05177); details: Ricerca radioligand binding and CYP450 panel; CYP450 1A2; at 10 µM; stronger effect = higher value
Chain of Cytochrome P450 1A2 (Homo sapiens) (P05177 whole entry, looked up): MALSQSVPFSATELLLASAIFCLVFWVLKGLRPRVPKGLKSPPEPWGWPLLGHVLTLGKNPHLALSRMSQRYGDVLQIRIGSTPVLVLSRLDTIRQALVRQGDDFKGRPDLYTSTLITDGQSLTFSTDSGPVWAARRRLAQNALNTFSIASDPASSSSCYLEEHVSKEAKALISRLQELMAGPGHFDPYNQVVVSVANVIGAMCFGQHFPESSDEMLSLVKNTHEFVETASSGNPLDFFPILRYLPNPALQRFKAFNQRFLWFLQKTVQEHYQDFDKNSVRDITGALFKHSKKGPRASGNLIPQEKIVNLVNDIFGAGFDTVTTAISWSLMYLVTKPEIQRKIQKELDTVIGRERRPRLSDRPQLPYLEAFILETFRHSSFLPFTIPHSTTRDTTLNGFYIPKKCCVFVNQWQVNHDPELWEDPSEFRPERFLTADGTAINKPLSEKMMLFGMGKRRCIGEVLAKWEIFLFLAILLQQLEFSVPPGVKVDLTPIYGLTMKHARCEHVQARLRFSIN

[6] = molecular target: Cytochrome P450 2C9 (Homo sapiens) (UniProt P11712); details: Ricerca radioligand binding and CYP450 panel; CYP450 2C9; at 10 µM; stronger effect = higher value
[7] = molecular target: Cytochrome P450 2D6 (Homo sapiens) (UniProt P10635); details: Ricerca radioligand binding and CYP450 panel; CYP450 2D6; at 10 µM; stronger effect = higher value
Chain of Cytochrome P450 2D6 (Homo sapiens) (P10635 whole entry, looked up): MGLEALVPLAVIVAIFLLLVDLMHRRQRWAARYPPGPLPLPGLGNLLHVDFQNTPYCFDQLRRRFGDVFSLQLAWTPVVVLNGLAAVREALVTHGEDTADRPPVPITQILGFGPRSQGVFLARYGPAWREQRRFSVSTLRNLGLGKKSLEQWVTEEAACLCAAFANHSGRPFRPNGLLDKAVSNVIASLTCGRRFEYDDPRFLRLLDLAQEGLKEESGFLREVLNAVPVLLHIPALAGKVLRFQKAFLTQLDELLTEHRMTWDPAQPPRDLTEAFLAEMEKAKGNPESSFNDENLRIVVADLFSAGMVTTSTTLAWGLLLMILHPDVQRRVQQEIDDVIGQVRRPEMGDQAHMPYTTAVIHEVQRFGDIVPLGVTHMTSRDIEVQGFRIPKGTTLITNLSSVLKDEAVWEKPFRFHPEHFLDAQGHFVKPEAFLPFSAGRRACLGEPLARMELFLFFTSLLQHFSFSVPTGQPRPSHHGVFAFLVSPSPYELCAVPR

[8] = molecular target: Cytochrome P450 3A4 (Homo sapiens) (UniProt P08684); details: Ricerca radioligand binding and CYP450 panel; CYP450 3A4; at 10 µM; stronger effect = higher value
Chain of Cytochrome P450 3A4 (Homo sapiens) (P08684 whole entry, looked up): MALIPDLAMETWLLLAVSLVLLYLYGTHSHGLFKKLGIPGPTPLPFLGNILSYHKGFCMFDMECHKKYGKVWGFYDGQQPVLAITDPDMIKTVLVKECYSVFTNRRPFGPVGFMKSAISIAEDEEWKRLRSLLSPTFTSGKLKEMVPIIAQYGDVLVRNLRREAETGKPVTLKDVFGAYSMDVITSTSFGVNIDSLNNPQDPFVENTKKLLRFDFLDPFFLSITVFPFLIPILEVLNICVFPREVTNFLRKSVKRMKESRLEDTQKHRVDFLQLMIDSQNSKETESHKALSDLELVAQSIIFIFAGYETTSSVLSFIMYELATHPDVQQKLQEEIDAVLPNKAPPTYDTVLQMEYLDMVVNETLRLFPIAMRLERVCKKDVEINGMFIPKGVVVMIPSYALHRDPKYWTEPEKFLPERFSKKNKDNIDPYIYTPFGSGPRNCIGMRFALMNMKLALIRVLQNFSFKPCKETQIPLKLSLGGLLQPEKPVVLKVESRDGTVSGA

[9] = molecular target: D(1A) dopamine receptor (Homo sapiens) (UniProt P21728); details: Ricerca radioligand binding and CYP450 panel; Dopamine D1; at 10 µM; stronger effect = higher value
Dopamine D2S = details: Ricerca radioligand binding and CYP450 panel, at 10 µM, stronger effect = higher value
GABAA = details: Ricerca radioligand binding and CYP450 panel, central, at 10 µM, stronger effect = higher value
Glutamate NMDA = details: Ricerca radioligand binding and CYP450 panel, Phencyclidine site, at 10 µM, stronger effect = higher value
Histamine H1 = details: Ricerca radioligand binding and CYP450 panel, at 10 µM, stronger effect = higher value
[10] = molecular target: Muscarinic acetylcholine receptor M2 (Homo sapiens) (UniProt P08172); details: Ricerca radioligand binding and CYP450 panel, at 10 µM, stronger effect = higher value
Chain of Muscarinic acetylcholine receptor M2 (Homo sapiens) (P08172 whole entry, looked up): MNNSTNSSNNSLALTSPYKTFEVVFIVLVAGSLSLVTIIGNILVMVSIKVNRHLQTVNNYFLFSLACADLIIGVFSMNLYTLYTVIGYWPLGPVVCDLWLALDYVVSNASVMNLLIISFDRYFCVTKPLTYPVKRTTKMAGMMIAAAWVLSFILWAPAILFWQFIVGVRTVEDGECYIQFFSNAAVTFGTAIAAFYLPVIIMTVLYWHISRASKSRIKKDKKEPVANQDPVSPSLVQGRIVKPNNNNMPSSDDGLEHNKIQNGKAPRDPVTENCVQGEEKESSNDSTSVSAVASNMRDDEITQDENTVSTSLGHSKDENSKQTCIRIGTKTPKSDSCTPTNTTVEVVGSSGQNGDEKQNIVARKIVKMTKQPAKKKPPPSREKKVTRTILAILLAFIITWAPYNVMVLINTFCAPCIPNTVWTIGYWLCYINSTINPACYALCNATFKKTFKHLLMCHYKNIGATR

[11] = molecular target: Muscarinic acetylcholine receptor M3 (Homo sapiens) (UniProt P20309); details: Ricerca radioligand binding and CYP450 panel, at 10 µM, stronger effect = higher value
Chain of Muscarinic acetylcholine receptor M3 (Homo sapiens) (P20309 whole entry, looked up): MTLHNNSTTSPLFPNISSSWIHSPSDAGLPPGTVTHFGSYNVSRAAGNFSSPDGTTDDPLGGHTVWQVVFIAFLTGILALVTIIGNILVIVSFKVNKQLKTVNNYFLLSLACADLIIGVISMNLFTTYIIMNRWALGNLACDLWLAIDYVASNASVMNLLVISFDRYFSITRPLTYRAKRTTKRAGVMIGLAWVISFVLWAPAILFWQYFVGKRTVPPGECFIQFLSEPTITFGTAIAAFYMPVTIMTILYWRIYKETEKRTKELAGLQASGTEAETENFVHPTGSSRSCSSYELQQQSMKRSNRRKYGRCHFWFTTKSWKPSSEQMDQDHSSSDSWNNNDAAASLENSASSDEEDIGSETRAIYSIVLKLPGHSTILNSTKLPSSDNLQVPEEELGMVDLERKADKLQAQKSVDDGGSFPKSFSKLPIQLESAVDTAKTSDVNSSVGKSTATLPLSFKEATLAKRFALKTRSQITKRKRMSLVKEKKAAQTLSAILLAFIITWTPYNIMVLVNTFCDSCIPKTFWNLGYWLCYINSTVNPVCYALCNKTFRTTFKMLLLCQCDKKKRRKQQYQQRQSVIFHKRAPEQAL

Nicotinic Acetylcholine = details: Ricerca radioligand binding and CYP450 panel, at 10 µM, stronger effect = higher value
[12] = tested on: Norepinephrine Transporter (NET); details: Ricerca radioligand binding and CYP450 panel, at 10 µM, stronger effect = higher value
Opiate mu (OP3, MOP) = details: Ricerca radioligand binding and CYP450 panel, at 10 µM, stronger effect = higher value
Prostanoid EP4 = details: Ricerca radioligand binding and CYP450 panel, at 10 µM, stronger effect = higher value
Sigma 1 = details: Ricerca radioligand binding and CYP450 panel, at 10 µM, stronger effect = higher value
Sodium Channel = details: Ricerca radioligand binding and CYP450 panel, site 2, at 10 µM, stronger effect = higher value
[13] = molecular target: Voltage-gated inwardly rectifying potassium channel KCNH2 (Homo sapiens) (UniProt Q12809); details: Ricerca radioligand binding and CYP450 panel; Potassium Channel hERG; at 10 µM; stronger effect = higher value
Chain of Voltage-gated inwardly rectifying potassium channel KCNH2 (Homo sapiens) (Q12809 whole entry, looked up): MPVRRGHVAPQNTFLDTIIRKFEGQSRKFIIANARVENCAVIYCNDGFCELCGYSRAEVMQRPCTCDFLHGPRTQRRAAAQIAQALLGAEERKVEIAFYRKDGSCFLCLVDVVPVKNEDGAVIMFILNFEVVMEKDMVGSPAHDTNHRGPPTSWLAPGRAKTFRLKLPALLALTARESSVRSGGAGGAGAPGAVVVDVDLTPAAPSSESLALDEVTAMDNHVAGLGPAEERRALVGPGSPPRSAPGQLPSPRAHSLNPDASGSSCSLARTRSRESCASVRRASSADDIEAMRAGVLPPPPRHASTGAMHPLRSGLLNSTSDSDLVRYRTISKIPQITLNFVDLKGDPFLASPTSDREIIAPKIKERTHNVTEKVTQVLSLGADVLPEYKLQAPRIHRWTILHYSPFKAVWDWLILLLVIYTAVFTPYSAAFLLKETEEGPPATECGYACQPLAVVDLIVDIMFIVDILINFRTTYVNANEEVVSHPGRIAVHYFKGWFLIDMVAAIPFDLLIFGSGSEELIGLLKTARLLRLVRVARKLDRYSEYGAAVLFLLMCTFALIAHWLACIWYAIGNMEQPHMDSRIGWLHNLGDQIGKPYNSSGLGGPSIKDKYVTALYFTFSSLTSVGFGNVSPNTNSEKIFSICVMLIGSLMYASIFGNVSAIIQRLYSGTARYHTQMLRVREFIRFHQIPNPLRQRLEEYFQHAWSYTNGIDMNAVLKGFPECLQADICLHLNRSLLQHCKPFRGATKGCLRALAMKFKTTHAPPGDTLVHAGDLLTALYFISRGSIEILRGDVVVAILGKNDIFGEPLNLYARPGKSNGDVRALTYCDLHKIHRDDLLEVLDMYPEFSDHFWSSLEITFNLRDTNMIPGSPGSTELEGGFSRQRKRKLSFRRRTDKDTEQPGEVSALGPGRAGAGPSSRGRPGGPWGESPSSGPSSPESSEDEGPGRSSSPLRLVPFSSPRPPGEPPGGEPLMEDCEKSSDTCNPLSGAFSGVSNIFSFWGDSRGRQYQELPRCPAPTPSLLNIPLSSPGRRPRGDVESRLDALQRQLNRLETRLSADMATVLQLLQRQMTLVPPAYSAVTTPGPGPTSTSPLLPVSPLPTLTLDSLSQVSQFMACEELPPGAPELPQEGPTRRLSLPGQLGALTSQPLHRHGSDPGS

Measured: inhibition

COc1ccc(Oc2c(Cl)cnn(-c3cc(C)cc(C)c3)c2=O)cc1
inactive: [1] 8% | Adenosine A1 19% | Adenosine A2A 14% | Adrenergic alpha1A 2% | Adrenergic alpha1B 3% | Adrenergic beta1 13% | [2] 8% | [3] -3% | [4] -2% | CYP450 2C19 -3% | Calcium Channel L-Type 26% | Cannabinoid CB1 25% | [5] 11% | [6] 5% | [7] 16% | [9] 5% | Dopamine D2S 13% | GABAA; Flunitrazepam site -1% | GABAA; Muscimol site 4% | Glutamate NMDA -3% | Histamine H1 16% | [10] 2% | [11] 0% | Nicotinic Acetylcholine -22% | [12] 47% | Opiate mu (OP3, MOP) -7% | Prostanoid EP4 2% | Sigma 1 -4% | Sodium Channel 23% | [13] 13%
active: [8] 53%

Reference: PubChem BioAssay AID504401 (The Scripps Research Institute Molecular Screening Center, 2011)
